{"source": "patent US7655681B2", "about": "“Method of treating and diagnosing sleep disordered breathing and means for carrying out the method” (priority 2004, dated 2010)", "key": {"[1]": {"conditions": "cited from earlier work"}, "[2]": {"test_system": "patient with light to moderate OSA", "test": "Controlled repeated dosing, repeated withdrawal study of zonisamide with polysomnographic recording", "format": "in vivo, human", "conditions": "for Sat <90%/hr (number of episodes reaching an oxygen saturation below 90% per hour of sleep): Day 0 baseline 4; for B-gluc (blood glucose concentration): Day 0 baseline 6.7; for CSAI (central sleep apnea index): Day 0 baseline 8; for AI (apnea index, number of obstructive apneas per hour of sleep): Day 0 baseline 16; for HI (hypopnea index, number of obstructive hypopneas per hour of sleep): Day 0 baseline 22; for BMI (body mass index): Day 0 baseline 26.5; for AHI (apnea/hypopnea index): Day 0 baseline 38; for MinSat (lowest oxygen saturation value reached during the sleep recording): Day 0 baseline 82; for DBP (diastolic blood pressure): Day 0 baseline 95; for SBP (systolic blood pressure): Day 0 baseline 165", "description": "A controlled repeated dosing, repeated withdrawal study of zonisamide was undertaken in a patient (BMI 26.5) with light to moderate OSA (A/H index, 30 and 35 on previous screening). […] A baseline polysomographic recording (standard sleep montage, nasal pressure recording) was undertaken at baseline and zonisamide therapy was started at 100 mg o.d. orally (Zonegran® capsules) with an increase to 400 mg after two weeks and finally to 600 mg at the end of 12 weeks. Repeat sleep recordings were undertaken after 19 days (5 days on 400 mg) and after 90 days (6 days on 600 mg). The following key index data were recorded (Table 1)."}, "[3]": {"test_system": "three male patients with light to moderate/severe OSA", "test": "Uncontrolled repeated dosing study of zonisamide with polysomnography", "format": "in vivo, human", "conditions": "for AHI, mean for all patients: baseline mean 30; for BMI, mean for all patients: baseline mean 32; for Sat. min, mean for all patients: baseline mean 84", "description": "Uncontrolled repeated dosing of zonisamide. An uncontrolled study of three male patients (mean BMI at baseline 32) with light to moderate/severe OSA treated with zonisamide up to an average of 177 days was performed. Polysomnography (standard sleep montage, nasal pressure recording) was undertaken at baseline. Zonisamide therapy was started at 50 or 100 mg o.d. orally (Zonegran® capsules). […] A repeat sleep study (follow-up 1) was undertaken. A further sleep study (follow-up 2) was performed after 165, 218 and 149 days at doses of 400, 600 and 200 mg, respectively. The follow-up 2 measurements were thus performed at a pharmacokinetical steady-state."}, "[4]": {"conditions": "Day 19 (5 days on 400 mg o.d. orally)"}, "[5]": {"conditions": "Day 90 (6 days on 600 mg orally)"}, "[6]": {"conditions": "during treatment, 100 to 600 mg orally"}, "[7]": {"conditions": "starting already after 10 days of treatment"}, "[8]": {"conditions": "follow-up 1, mean dose 200 mg, mean 33 days of treatment"}, "[9]": {"conditions": "follow-up 2, mean dose 400 mg, mean 177 days of treatment"}, "[10]": {"conditions": "patient two, early titration phase, 50 mg zonisamide, simplified sleep recording"}}, "data": [{"smiles": "NS(=O)(=O)Cc1noc2ccccc12", "note": "[zonisamide, 1,2-benzisoxazole-3-methanesulfonamide]", "values": [{"measurement": "half-life in plasma", "setting": "[1]", "value": "about 60 hrs"}, {"measurement": "Sat <90%/hr (number of episodes reaching an oxygen saturation below 90% per hour of sleep)", "setting": "[2]; [4]", "value": "<1 per hour of sleep"}, {"measurement": "B-gluc (blood glucose concentration)", "setting": "[2]; [4]", "value": 6.4, "unit": "mM"}, {"measurement": "CSAI (central sleep apnea index)", "setting": "[2]; [4]", "value": "2 per hour of sleep"}, {"measurement": "AI (apnea index, number of obstructive apneas per hour of sleep)", "setting": "[2]; [4]", "value": "4 per hour of sleep"}, {"measurement": "HI (hypopnea index, number of obstructive hypopneas per hour of sleep)", "setting": "[2]; [4]", "value": "9 per hour of sleep"}, {"measurement": "BMI (body mass index)", "setting": "[2]; [4]", "value": 26.4, "unit": "kg/m^2"}, {"measurement": "AHI (apnea/hypopnea index)", "setting": "[2]; [4]", "value": "13 per hour of sleep"}, {"measurement": "MinSat (lowest oxygen saturation value reached during the sleep recording)", "setting": "[2]; [4]", "value": 89}, {"measurement": "DBP (diastolic blood pressure)", "setting": "[2]; [4]", "value": 89, "unit": "mmHg"}, {"measurement": "SBP (systolic blood pressure)", "setting": "[2]; [4]", "value": 155, "unit": "mmHg"}, {"measurement": "Sat <90%/hr (number of episodes reaching an oxygen saturation below 90% per hour of sleep)", "setting": "[2]; [5]", "value": "0 per hour of sleep"}, {"measurement": "B-gluc (blood glucose concentration)", "setting": "[2]; [5]", "value": 5.9, "unit": "mM"}, {"measurement": "CSAI (central sleep apnea index)", "setting": "[2]; [5]", "value": "2 per hour of sleep"}, {"measurement": "AI (apnea index, number of obstructive apneas per hour of sleep)", "setting": "[2]; [5]", "value": "2 per hour of sleep"}, {"measurement": "HI (hypopnea index, number of obstructive hypopneas per hour of sleep)", "setting": "[2]; [5]", "value": "6 per hour of sleep"}, {"measurement": "BMI (body mass index)", "setting": "[2]; [5]", "value": 25.6, "unit": "kg/m^2"}, {"measurement": "AHI (apnea/hypopnea index)", "setting": "[2]; [5]", "value": "8 per hour of sleep"}, {"measurement": "MinSat (lowest oxygen saturation value reached during the sleep recording)", "setting": "[2]; [5]", "value": 90}, {"measurement": "DBP (diastolic blood pressure)", "setting": "[2]; [5]", "value": 85, "unit": "mmHg"}, {"measurement": "SBP (systolic blood pressure)", "setting": "[2]; [5]", "value": 145, "unit": "mmHg"}, {"measurement": "change in total sleep time", "setting": "[2]; after zonisamide", "value": "no clinically significant change"}, {"measurement": "side effects", "setting": "[2]; during the study period, up to 600 mg orally, 90 days", "value": "No side effects were reported"}, {"measurement": "number of mixed events", "setting": "[2]; [6]", "value": "decreased in proportion to the number of obstructive events"}, {"measurement": "polysomnographically recorded sleep variables", "setting": "[2]; [6]", "value": "not systematically affected"}, {"measurement": "apnea reducing effect", "setting": "[2]; obstructive and central events", "value": "potent apnea reducing effect"}, {"measurement": "daytime sleepiness", "setting": "[2]; spontaneous reporting, already after 10 days of treatment", "value": "markedly reduced"}, {"measurement": "blood glucose concentration", "setting": "[2]; [7]", "value": "gradually reduced"}, {"measurement": "blood pressure", "setting": "[2]; [7]", "value": "gradually reduced"}, {"measurement": "nocturnal snoring episodes", "setting": "[2]; subjective and spouse reports, soon after onset of treatment", "value": "clear reduction"}, {"measurement": "apnea reducing effect", "setting": "[3]; dosing levels from below 100 mg up to 600 mg daily", "value": "potent apnea reducing effect"}, {"measurement": "AHI, mean for all patients", "setting": "[3]; [8]", "value": "25 per hour of sleep"}, {"measurement": "BMI, mean for all patients", "setting": "[3]; [8]", "value": 31, "unit": "kg/m^2"}, {"measurement": "Sat. min, mean for all patients", "setting": "[3]; [8]", "value": 85}, {"measurement": "AHI, mean for all patients", "setting": "[3]; [9]", "value": "22 per hour of sleep"}, {"measurement": "BMI, mean for all patients", "setting": "[3]; [9]", "value": 30, "unit": "kg/m^2"}, {"measurement": "Sat. min, mean for all patients", "setting": "[3]; [9]", "value": 86}, {"measurement": "AHI", "setting": "[3]; patient one, follow-up 1, dose 100 mg, 7 days of treatment, baseline 20", "value": "12 per hour of sleep"}, {"measurement": "BMI", "setting": "[3]; patient one, follow-up 1, dose 100 mg, 7 days of treatment, baseline 28.3", "value": 28.3, "unit": "kg/m^2"}, {"measurement": "Sat. min (lowest oxygen saturation value reached during the sleep recording)", "setting": "[3]; patient one, follow-up 1, dose 100 mg, 7 days of treatment, baseline 88", "value": 85}, {"measurement": "AHI", "setting": "[3]; patient one, follow-up 2, dose 200 mg, 149 days of treatment, baseline 20", "value": "11 per hour of sleep"}, {"measurement": "BMI", "setting": "[3]; patient one, follow-up 2, dose 200 mg, 149 days of treatment, baseline 28.3", "value": 27.9, "unit": "kg/m^2"}, {"measurement": "Sat. min (lowest oxygen saturation value reached during the sleep recording)", "setting": "[3]; patient one, follow-up 2, dose 200 mg, 149 days of treatment, baseline 88", "value": 90}, {"measurement": "BMI", "setting": "[3]; patient three, follow-up 1, dose 100 mg, 10 days of treatment, baseline 35.0", "value": 35.1, "unit": "kg/m^2"}, {"measurement": "AHI", "setting": "[3]; patient three, follow-up 1, dose 100 mg, 10 days of treatment, baseline 57", "value": "59 per hour of sleep"}, {"measurement": "Sat. min (lowest oxygen saturation value reached during the sleep recording)", "setting": "[3]; patient three, follow-up 1, dose 100 mg, 10 days of treatment, baseline 79", "value": 80}, {"measurement": "BMI", "setting": "[3]; patient three, follow-up 2, dose 600 mg, 218 days of treatment, baseline 35.0", "value": 33.5, "unit": "kg/m^2"}, {"measurement": "AHI", "setting": "[3]; patient three, follow-up 2, dose 600 mg, 218 days of treatment, baseline 57", "value": "53 per hour of sleep"}, {"measurement": "Sat. min (lowest oxygen saturation value reached during the sleep recording)", "setting": "[3]; patient three, follow-up 2, dose 600 mg, 218 days of treatment, baseline 79", "value": 78}, {"measurement": "AHI", "setting": "[3]; [10]", "value": 8}, {"measurement": "BMI", "setting": "[3]; [10]", "value": 31.3}, {"measurement": "AHI", "setting": "[3]; patient two, follow-up 1, dose 400 mg, 81 days of treatment, baseline 12", "value": "3 per hour of sleep"}, {"measurement": "BMI", "setting": "[3]; patient two, follow-up 1, dose 400 mg, 81 days of treatment, baseline 31.4", "value": 30.7, "unit": "kg/m^2"}, {"measurement": "Sat. min (lowest oxygen saturation value reached during the sleep recording)", "setting": "[3]; patient two, follow-up 1, dose 400 mg, 81 days of treatment, baseline 86", "value": 91}, {"measurement": "AHI", "setting": "[3]; patient two, follow-up 2, dose 400 mg, 165 days of treatment, baseline 12", "value": "3 per hour of sleep"}, {"measurement": "BMI", "setting": "[3]; patient two, follow-up 2, dose 400 mg, 165 days of treatment, baseline 31.4", "value": 29.3, "unit": "kg/m^2"}, {"measurement": "Sat. min (lowest oxygen saturation value reached during the sleep recording)", "setting": "[3]; patient two, follow-up 2, dose 400 mg, 165 days of treatment, baseline 86", "value": 90}, {"measurement": "daytime sleepiness", "setting": "[3]; spontaneous reporting by the patients", "value": "overall positive effect"}, {"measurement": "polysomnographically recorded sleep variables", "setting": "[3]; three patients, during treatment", "value": "not systematically affected"}, {"measurement": "side effects", "setting": "[3]; three patients, up to 600 mg, up to an average of 177 days", "value": "No significant side effects were reported"}]}]}
